Laboratory results as given in ChEMBL document CHEMBL3045202, “Synthesis of some bisindolyl analogs for in vitro cytotoxic and DNA cleavage studies” (Med Chem Res, 2013).
pIC50: −log10 of the molar value. The source made the active and inactive calls. The calls are words filed in the database; no cut-off is given here.

Tests used:
Escherichia coli = assay: Induction of DNA cleavage in Escherichia coli at 1 ug/ml after 2 hr by agarose gel electrophoretic analysis
HEp-2 = assay: Cytotoxicity against Homo sapiens (human) Hep2 cells by MTT assay; format: functional, cell-based
A549 = assay: Cytotoxicity against Homo sapiens (human) A549 cells by MTT assay; format: functional, cell-based
HeLa = assay: Cytotoxicity against Homo sapiens (human) HeLa cells by MTT assay; format: functional, cell-based

| Activity (Escherichia coli) | Compound | pIC50 (HEp-2) | pIC50 (A549) | pIC50 (HeLa) |
| --- | --- | --- | --- | --- |
| Active | COc1ccc2[nH]c(-c3ccccc3)c(C(c3c(-c4ccccc4)[nH]c4ccc(Cl)cc34)C3C(=O)NN=C3C)c2c1 (stereo not drawn) | 5.21 | 5.96 | 5.92 |
|  | COc1ccc2[nH]c(-c3ccccc3)c(C(c3c[nH]c4ccccc34)C3C(=O)NN=C3C)c2c1 (stereo not drawn) | 5.28 | 5.57 | 5.77 |
|  | CC1=NNC(=O)C1C(c1c(-c2ccccc2)[nH]c2ccc(C)cc12)c1c(-c2ccccc2)[nH]c2ccc(Cl)cc12 (stereo not drawn) | 4.49 | 4.46 | < 4.00 |
|  | CC1=NNC(=O)C1C(c1c[nH]c2ccccc12)c1c(-c2ccccc2)[nH]c2ccc(Cl)cc12 (stereo not drawn) | < 4.00 | 5.80 | 5.42 |
|  | CC1=NNC(=O)C1C(c1c[nH]c2ccccc12)c1c(-c2ccccc2)[nH]c2ccccc12 (stereo not drawn) | 5.17 | 5.26 | 5.11 |
|  | CC1=NNC(=O)C1C(c1c(-c2ccccc2)[nH]c2ccc(C)cc12)c1c(-c2ccccc2)[nH]c2ccc(C)cc12 (stereo not drawn) | < 4.00 | 4.43 | 4.49 |
|  | COc1cccc2c1C(=O)c1c(O)c3c(c(O)c1C2=O)C[C@@](O)(C(=O)CO)C[C@@H]3O[C@H]1C[C@H](N)[C@H](O)[C@H](C)O1 [DOXORUBICIN] |  |  | 6.15 |
| Active | COc1ccc2[nH]c(-c3ccccc3)c(C(c3c(-c4ccccc4)[nH]c4ccc(C)cc34)C3C(=O)NN=C3C)c2c1 (stereo not drawn) | 5.46 | 5.74 | < 4.00 |
|  | CC1=NNC(=O)C1C(c1c(-c2ccccc2)[nH]c2ccc(Cl)cc12)c1c(-c2ccccc2)[nH]c2ccc(Cl)cc12 (stereo not drawn) | 4.84 | 5.15 | 5.02 |
|  | CC1=NNC(=O)C1C(c1c(-c2ccccc2)[nH]c2ccccc12)c1c(-c2ccccc2)[nH]c2ccc(C)cc12 (stereo not drawn) | < 4.00 | 4.66 | < 4.00 |
| Active | CC1=NNC(=O)C1C(c1c(-c2ccccc2)[nH]c2ccccc12)c1c(-c2ccccc2)[nH]c2ccc(Cl)cc12 (stereo not drawn) | 4.38 | 4.50 | 4.53 |
| Active | CC1=NNC(=O)C1C(c1c[nH]c2ccccc12)c1c(-c2ccccc2)[nH]c2ccc(C)cc12 (stereo not drawn) | 5.49 | 5.89 | 5.62 |
